What was measured:
Type in all cases: cell-based
Npw38 = experiment: Npw38-NpwBP binding detection by intracellular localization of GFP fluorescence in COS7 cells; settings: co-introduced with Npw38 expression vector, fluorescence microscopy
Description: (§1) Monkey kidney-derived, cultured cell COS7 was incubated in a 10% fetal calf serum-containing Dulbecco's modified Eagle's medium (DMEM) in the presence of 5% CO2 at 37° C. COS7 cells of 1=10^5 were placed in a 6-well plate (from Nunk, having a well diameter of 3 cm), and further incubated therein in the presence of 5% CO2 at 37° C. for 22 hours. After the medium was removed, the cell sur were washed with a phosphate buffer solution (PBS), and then further washed with a 50 mM Tris-HCl (pH 7.5)-containing DMEM. To these cells, added was a suspension comprising 1 μl of a plasmid suspension, 0.6 ml of DMEM and 3 μl of TRANSFECTAM™ (from IBF), and incubated in the presence of 5% CO2 at 37° C. for 12 hours. Then, the cells were washed with PBS, and fixed with 4% peraformaldehyde-containing PBS at room temperature for 10 minutes. The thus-fixed cells were washed with PBS, then treated with 0.2% Triton X-100, and thereafter blocked with 5% milk PBS. This was reacted with an anti-HA antibody for 45 minutes, then washed with PBS, and reacted with a rhodamine-binding secondary antibody for 45 minutes.
Fusion protein HA-Npw38 (A. Komuro et al., J. Biol. Chem., 274: 36513-36519, 1999) was used. This is a fusion protein A-X in which X is Npw38 and A is HA tag. […] Also used were fusion proteins NpwBP(P1)-GFP and NpwBP(P2)-GFP. These are fusion proteins Y-B in which Y is a proline-rich region of NpwBP and B is GFP. In these, P1 contains amino acid residues of from 190th valine to 210th glutamine in SEQ ID NO: 2; and P2 contains amino acid residues of from 401st glutamine to 541st isoleucine in Seq ID NO: 2.
First, pKA1-NpwBP(P1)-GFP or pKA1-NpwBP(P2)-GFP was singly introduced into COS7 cells, and the localization of these fusion proteins in the cells was checked through fluorescence microscopy based on the green fluorescence of GFP as the index thereof. […] In this stage, the cells were immunostained with an antibody against the tag to check the localization of the fusion protein HA-Npw38. This verified the localization of the fusion protein in the nucleus of each cell (FIG. 3c).

NpwBP(P2)-Bcl-XL = molecular target: T1, NpwBP(P2)-Bcl-XL (Homo sapiens, UniProt Q07817+Q9Y2W2); experiment: Application of mitochondrial localization signal: co-expression with NpwBP(P2)-Bcl-XL in COS7 cells; settings: mitochondrial region detected with anti-human mitochondrial antibody
T1 construct: expressed in transfected cells; host or cells: COS7 (monkey kidney)
Description: as §1, with “45 minutes. […]” for “45 minutes.”
However, when the fusion protein NpwBP(P2)Bcl-XL was co-expressed therein, the mitochondrial region of each cell also gave the fluorescence (FIG. 4). The mitochondrial region in each cell was detected through immunostaining with an anti-human mitochondrial antibody (Leinco Technologies, Inc.). […]

NpwBP = molecular target: T2, NpwBP (Homo sapiens, UniProt Q9Y2W2); experiment: Contrary system: NpwBP co-expressed with Npw38(ΔC)-GFP in COS7 cells, GFP localization
T2 construct: expressed in transfected cells; host or cells: COS7 (monkey kidney)
T2 sequence (Q9Y2W2 1-641): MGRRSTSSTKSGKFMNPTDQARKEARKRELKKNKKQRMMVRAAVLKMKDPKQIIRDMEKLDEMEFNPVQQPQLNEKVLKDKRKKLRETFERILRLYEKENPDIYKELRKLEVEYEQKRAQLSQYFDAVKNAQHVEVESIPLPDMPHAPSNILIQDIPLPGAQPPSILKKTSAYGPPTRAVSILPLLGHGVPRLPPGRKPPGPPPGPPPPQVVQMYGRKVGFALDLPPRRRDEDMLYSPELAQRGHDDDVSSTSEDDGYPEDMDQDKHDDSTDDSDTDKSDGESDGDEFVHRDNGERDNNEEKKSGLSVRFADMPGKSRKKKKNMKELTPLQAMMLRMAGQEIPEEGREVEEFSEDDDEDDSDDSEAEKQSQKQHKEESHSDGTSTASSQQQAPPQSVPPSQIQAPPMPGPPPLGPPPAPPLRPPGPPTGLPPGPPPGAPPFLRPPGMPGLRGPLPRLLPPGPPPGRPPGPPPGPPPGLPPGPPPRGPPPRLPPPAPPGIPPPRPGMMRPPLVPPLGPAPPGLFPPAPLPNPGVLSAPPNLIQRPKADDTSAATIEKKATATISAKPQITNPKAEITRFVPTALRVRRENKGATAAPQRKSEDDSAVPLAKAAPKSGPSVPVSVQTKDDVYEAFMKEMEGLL
Description: as §1
Systems contrary to those in the above (3) were tried.

T1 sequence (Q9Y2W2+Q07817 fused): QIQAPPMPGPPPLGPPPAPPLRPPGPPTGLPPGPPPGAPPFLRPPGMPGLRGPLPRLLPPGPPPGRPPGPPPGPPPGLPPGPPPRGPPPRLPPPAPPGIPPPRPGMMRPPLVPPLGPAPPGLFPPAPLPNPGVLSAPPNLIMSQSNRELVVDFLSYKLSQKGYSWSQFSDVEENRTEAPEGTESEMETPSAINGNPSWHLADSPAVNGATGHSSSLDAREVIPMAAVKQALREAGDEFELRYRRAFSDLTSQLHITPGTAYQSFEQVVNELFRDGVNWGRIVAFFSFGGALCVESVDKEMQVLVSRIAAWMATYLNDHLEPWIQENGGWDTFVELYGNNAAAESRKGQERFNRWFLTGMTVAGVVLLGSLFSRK

localization of the green fluorescence on co-expression with NpwBP (NpwBP)	Substance	localization of the green fluorescence on co-expression with Npw38 (Npw38)	localization of the fluorescence on co-expression with NpwBP(P2)-Bcl-XL (NpwBP(P2)-Bcl-XL)
–	GFP: green fluorescent protein, expressed in place of NpwBP-GFP as control [reference compound]	no intranuclear localization	–
move in the nucleus	Npw38(ΔC)-GFP: fusion protein in which the nuclear localization signal in Npw38 was deleted, fused to GFP	–	localized also in the mitochondrial region
–	NpwBP(P1)-GFP: fusion protein of proline-rich region P1 of NpwBP (residues 190-210 of SEQ ID NO: 2) and GFP	localized in the nucleus	–
–	NpwBP(P2)-GFP: fusion protein of proline-rich region P2 of NpwBP (residues 401-541 of SEQ ID NO: 2) and GFP	localized in the nucleus	–

From patent publication US20030040012A1, “Method of detecting protein-protein interaction” (priority 2000, published 2003)
